In patent US20240252677A1, “ONE-COMPONENT DELIVERY SYSTEM FOR NUCLEIC ACIDS” (The Trustees of the University of Pennsylvania, priority 2021, published 2024):

How the values were obtained:
[1] = Serum stability of DNPs, dimensions in 1% fetal bovine serum by DLS; type: physicochemical
Experimental: Sample preparation: injected 25 μL ethanol stock solution of IAJD125/155 (80 mg/mL) into the mixture of 462.5 μL acetate buffer (10 mM, pH 4.0) and 12.5 μL Luc-mRNA (4.0 mg/mL in water), followed by vortex for 5 seconds.
Final composition of DNP solution: IAJD125/155 (4.0 mg/mL)+Luc-mRNA (0.1 mg/mL) in 500 μL acetate buffer. The dimension of assemblies in solution was checked by DLS.
DNPs in 1% Serum: Serum (5.5 μL)+[500 μL solution of IAJD (4.0 mg/mL) and Luc-mRNA (0.1 mg/mL].

[2] = Stability of DNPs by DLS after storage at 5° C.; type: physicochemical; parameters: key: Excellent: the original sizes and distribution remains almost the same after storage; Good: the original relatively big sizes became smaller or broad size distribution became narrower; Not stable: the original relatively big sizes or broad size distribution remained almost the similar level, or the original relatively small sizes became bigger or narrow size distribution became broader; conditions: storage time 2 days; CIAJD 4.0 mg/mL; CLuc-mRNA 0.1 mg/mL; acetate buffer pH 4.0
Experimental: The stability of the DNPs as assayed by DLS. All the samples are prepared in acetate buffer. The stabilities of the constructs were ranked: Excellent (in bold)—the original sizes and distribution remains almost the same after storage; Good—the original relatively big sizes became smaller or broad size distribution became narrower; Not stable—the original relatively big sizes or broad size distribution remained almost the similar level, or the original relatively small sizes became bigger or narrow size distribution became broader.

[3] = DNPs in acetate buffer (pH 4.0), no serum, IAJD 4.0 mg/mL + Luc-mRNA 0.1 mg/mL

PDI ([1]; DNPs in 1% Serum, t = 0 min) | Size (nm) ([1]; DNPs in 1% Serum, t = 0 min) | PDI ([1]; DNPs in 1% Serum, t = 10 min) | Size (nm) ([1]; DNPs in 1% Serum, t = 10 min) | PDI ([1]; DNPs in 1% Serum, t = 20 min) | Size (nm) ([1]; DNPs in 1% Serum, t = 20 min) | PDI ([1]; DNPs in 1% Serum, t = 30 min) | Size (nm) ([1]; DNPs in 1% Serum, t = 30 min) | PDI ([1]; DNPs in 1% Serum, t = 40 min) | Size (nm) ([1]; DNPs in 1% Serum, t = 40 min) | PDI ([1]; DNPs in 1% Serum, t = 50 min) | Size (nm) ([1]; DNPs in 1% Serum, t = 50 min) | PDI ([1]; DNPs in 1% Serum, t = 60 min) | Size (nm) ([1]; DNPs in 1% Serum, t = 60 min) | PDI [1, 3] | Size (nm) [1, 3] [nm] | Ranking of stability [2] | Compound
0.234 | 207 | 0.290 | 206 | 0.303 | 199 | 0.256 | 197 | 0.284 | 200 | 0.339 | 190 | 0.258 | 194 | 0.273 | 196 |  | CCCCCCCCCCCCCCOc1cc(COC(=O)CCCN2CCN(CCO)CC2)cc(OCCCCCCCCCCC)c1 [IAJD 125, 3-(Tetradecyloxy)-5-(undecyloxy)benzyl 4-(4-(2-hydroxyethyl)piperazin-1-yl)butanoate]
0.186 | 93 | 0.171 | 101 | 0.186 | 105 | 0.173 | 107 | 0.161 | 108 | 0.174 | 111 | 0.149 | 108 | 0.256 | 83 |  | CCCCCCCCCCCOc1cc(COC(=O)c2cc(OCCOCCOCCCC(=O)CCCN3CCCCC3)c(OCCOCCOCCOCc3ccccc3)c(OCCOCCOCCOC(=O)CCCN3CCCCC3)c2)cc(OCC(CC)CCCC)c1 (stereo not drawn) [IAJD 155]
 |  |  |  |  |  |  |  |  |  |  |  |  |  |  |  | Excellent | Diheptyl 5,5′-((5-(((4-(4-methylpiperazin-1-yl)butanoyl)oxy)methyl)-1,3-phenylene)bis(oxy)) dipentanoate [IAJD 85]
